In patent US10041905B2, “Electrochemically active agents for pH modulation in biological buffers” (Robert Bosch GmbH, priority 2015, dated 2018):

What was measured:
[1] = Electrochemical generation of H+ or OH- ions at indium tin oxide electrode surfaces (electro-oxidation / electro-reduction, cyclic voltammetry); assay type: physicochemical
Description: Electrode material used: The electrode material was indium tin oxide. This is a semiconducting electrode surface with very large potential window in an aqueous solution.
Oxidation of ascorbic acid at the electrode surfaces produced H^+ ions and changed the electrode surface pH to a more acidic state: AH2→A+2H^++2e^−, where AH2 is ascorbic acid ([…]) (as shown in FIG. 5). The electrode potential at which it oxidizes was less than 0.5V for Indium tin oxide material vs Ag/AgCl reference electrode (as shown in FIG. 7). This potential was less than the voltages needed for the oxygen evolution reaction in aqueous solution. The ascorbic acid also acted as a sacrificial species to prevent electrochemical degradation of the surface chemistry.
Reduction of benzoquinone (C6H4O2) into Hydroquinone (C6H6O2) can produce OH^− ions at −0.1V: BQ+2e^−+2H2O →HQ+2OH^− This reduction reaction increased the pH at the electrode interface.

[2] = molecular target: T1, Green Fluorescent Protein (GFP) (Aequorea victoria, UniProt P42212); assay: Fluorescence intensity of GFP after incubation with benzoquinones (protein stability); assay type: biochemical; details: 0.5 mM benzoquinone, phosphate buffered saline, 30 min
Method: Para-benzoquinones and ortho-benzoquinones (compounds 2, 4, 6, and 9 in FIG. 31) are susceptible to nucleophilic attack at the double bond of the ring (positions 2, 3, 5 and 6 in structure 2 of FIG. 31, positions 3, 4, 5 and 6 in structure 4 of FIG. 31, and positions 2 and 3 in structure 6 of FIG. 31). Introducing substituents at some or all of those positions can mitigate the problem of nucleophilic attack. […] Fluorescence intensity of Green Fluorescent Protein (GFP) was measured after incubation with three different benzoquinones in phosphate buffered saline for 30 min (concentration of benzoquinones was 0.5 mM). The difference in fluorescence intensity indicates the varied effect that the different substitutions in benzoquinones have on the stability of GFP. Fluorescence intensity of GFP is indicative of its structural integrity. Losses in fluorescence intensity usually indicate loss of its tertiary structure (protein denaturation) (Yin D. X., Zhu L., Schimke R. T. Anal. Biochem. 1996, 235:195-201).

[3] = molecular target: T1, Green Fluorescent Protein (GFP); details: literature (Loomis et al.; U.S. Pat. No. 6,753,312); cited from earlier work

SMILES | potential of current increase indicating start of oxidation ([1]; cyclic voltammetry, ITO electrodes) | electrode potential at which it oxidizes ([1]; indium tin oxide vs Ag/AgCl reference electrode) | loss in GFP fluorescence intensity after incubation [2] [%] | potential of reduction producing OH- ions ([1]; reduction of benzoquinone into hydroquinone) [V] | Michael addition reaction with amino groups of proteins [3]
O=C1O[C@H]([C@@H](O)CO)C(O)=C1O [ascorbic acid] | around 0.25 V | less than 0.5 V | – | – | –
O=C1C=CC(=O)C=C1 [unsubstituted benzoquinone, 1,4-benzoquinone] | – | – | 25 | −0.1 | undergoes Michael addition reaction
